# Data reported in patent publication US20230265167A1, “COMPOSITIONS HAVING NEUROREGENERATIVE APPLICATIONS” (GRIFOLS WORLDWIDE OPERATIONS LIMITED, priority 2020, published 2023).
# Test system: SH-SY5Y cells
# Assay: Neurite outgrowth (differentiation) in SH-SY5Y cells, Tubulin Tracker imaging
# Type: cell-based, human
# Experimental: Transferrin is utilized in cell culture and in-vivo to deliver iron as a nutrient to cells. This is typically accomplished through the actions of holo-transferrin (HoloTf) binding to, and endocytosis by, its cognate receptor CD71, the transferrin receptor 1 (TfR1). Transferrin is typically believed to provide cells with iron as a means to promote and sustain metabolic activity. […] Induction of neuronal differentiation was assessed by morphological parameters of neurite formation (a key element typically used as a marker of neuronal differentiation, neuronal health, and function) according to the procedures of Agholme, 2010. J. of Alzheimer's Disease. Vol. 20:1p 069-108; and Dyberg et al., 2017. PNAS Vol 114 (32), E6603-E6612.
# Undifferentiated SH-SY5Y cells were seeded into 96 well clear bottom plates in media containing 0.1% FBS. A serum-free base media was utilized as recommended by the supplier for SH-SY5Y cells (Sigma, Cat #94030304-1VL). Twenty-four hours after seeding cells, a 3× stock solution of ApoTf, final concentrations indicated on the x-axis, in serum free base media was added to the cells. ApoTf was obtained and purified from pooled human plasma and dosed at a final concentration of 0.2 mg/mL.
# Cells were allowed to differentiate for 6 days. Neurite growth was assessed by imaging and image analysis. At the time of analysis, a 10× solution of Tubulin Tracker (Molecular Probes, T34075) and Hoechst 33342 (Molecular Probes #H3570) nuclear stain was prepared.
# Briefly, Tubulin Tracker dissolved in DMSO was diluted 1:1 with Pluronic F-127 and further diluted into HBSS to generate a 10× solution. Hoechst 33342 was added to the HBSS-Tubulin Tracker solution at 10 μg/mL to generate a 10× nuclear stain. The 10× staining solution (10 μL) was added directly to treated assay wells and incubated at 37° C. for 30 minutes. Following incubation, 110 μL of 0.4% Trypan Blue was added directly to assay wells and imaged on a Molecular Devices Nano imaging instrument. Nine images/well were acquired in the blue (Nuclei) and green (Tubulin) fluorescent channels for each image.
# After obtaining images, the MetaExpress Neurite Outgrowth analysis module (Molecular Devices) was used to identify cells, cell bodies, and quantify neurites. The total number of neurite branches were divided by the total number of cells imaged to account for different numbers of cells in each test well. The Outgrowth Fold Change was determined by setting the untreated control cells to a value of 1 with all other treatments shown relative to untreated control.
# Undifferentiated SH-SY5Y cells were seeded and treated as described in Example 1. Neurite growth was assessed by imaging and image analysis. At the time of analysis, a 10× solution of Tubulin Tracker (Molecular Probes, T34075) and Hoechst 33342 (Molecular Probes #H3570) nuclear stain was prepared. Briefly, Tubulin Tracker dissolved in DMSO was diluted 1:1 with Pluronic F-127 and further diluted into HBSS to generate a 10× solution. Hoechst 33342 was added to the HBSS-Tubulin Tracker solution at 10 μg/mL to generate at 10× nuclear stain. The 10× staining solution (10 μL) was added directly to treated assay wells and incubated at 37° C. for 30 minutes. Following incubation, 110 μL of 0.4% Trypan Blue was added directly to assay wells and imaged on a Molecular Devices Nano imaging instrument. Nine images/well were acquired in the blue (Nuclei) and green (Tubulin) fluorescent channels for each image. After obtaining images, the MetaExpress Neurite Outgrowth analysis module (Molecular Devices) was used to identify cell bodies and quantify neurites. The total number of neurite branches were divided by the total number of cells imaged to account for different numbers of cells. The Outgrowth Fold Change was determined by setting the untreated control to a value of 1 with all other treatments shown relative to untreated control. ApoTf was obtained and purified from pooled human plasma and dosed at a final concentration of 0.2 mg/mL. […]
substance,measurement,setting,value
"apo-transferrin: iron-free form of transferrin protein, obtained and purified from pooled human plasma",neurite outgrowth (Outgrowth Fold Change),"FIG. 1A, dose response up to 0.8 mg/mL, 6 days",able to induce neurite outgrowth in a dose dependent manner
same,"neurite/tubulin outgrowth, visual comparison to untreated control","FIG. 1C, 0.1 mg/mL",promoting induction of neurite/tubulin outgrowth
same,neurite outgrowth / differentiation versus concentration,"FIG. 3A, DFO versus ApoTf",continues to increase differentiation even up to 9.9 μM
same,neurogenesis (neurite outgrowth) of SH-SY5Y,"FIG. 3B, proteins at 0.2 mg/mL",did induce neurogenesis
same,"neurogenic effect, ApoTf in combination with Y-27632","FIG. 8, ApoTf 0.1 mg/mL plus Y-27632 50 μM",the neurogenic effect was synergistic
same,"differentiation / neurite outgrowth, combination with neurotrophic factors","FIGS. 7A-7D, ApoTf 0.1 mg/mL plus factor",synergistic effect
